Results on 4 compounds are retold here after patent publication US7915284B2, “2-aryl-6-phenylimidazo[1,2-a]pyridine derivatives, preparation thereof and therapeutic use thereof” (Sanofi-Aventis, priority 2006, dated 2011).

Broadly, the pEC50 is the EC50 on a negative log10 scale, so that one unit is a factor of ten.

pEC50: −log10 of the molar value.

In this experiment the target is T1, mouse Nurr1 receptor (Mus musculus, UniProt Q06219).
T1 construct: endogenously expressing the mouse Nurr1 receptor; host or cells: Neuro-2A (N2A) mouse neuroblastoma cells stably transfected with 8NBRE-luciferase
T1 sequence (Q06219 whole entry): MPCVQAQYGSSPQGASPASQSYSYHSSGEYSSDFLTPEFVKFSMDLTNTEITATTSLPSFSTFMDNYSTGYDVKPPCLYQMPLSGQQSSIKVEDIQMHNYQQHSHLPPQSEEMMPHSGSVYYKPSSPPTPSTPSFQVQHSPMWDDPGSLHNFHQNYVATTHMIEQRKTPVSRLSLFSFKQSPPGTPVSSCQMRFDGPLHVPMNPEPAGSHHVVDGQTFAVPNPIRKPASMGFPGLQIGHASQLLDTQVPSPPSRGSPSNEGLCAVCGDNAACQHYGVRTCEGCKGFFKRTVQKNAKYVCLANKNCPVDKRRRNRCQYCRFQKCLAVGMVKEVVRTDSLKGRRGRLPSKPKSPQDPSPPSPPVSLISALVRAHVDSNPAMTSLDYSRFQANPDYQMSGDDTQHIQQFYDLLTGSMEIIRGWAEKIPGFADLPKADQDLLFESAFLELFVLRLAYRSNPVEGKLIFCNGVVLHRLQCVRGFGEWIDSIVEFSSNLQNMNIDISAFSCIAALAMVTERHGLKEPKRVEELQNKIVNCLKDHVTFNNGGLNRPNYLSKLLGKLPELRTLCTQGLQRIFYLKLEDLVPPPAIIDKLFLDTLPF
Put plainly: In vitro activity on N2A cells (NBRE-luciferase reporter). It is filed as cell-based. The following applies: N2A cell line endogenously expressing mouse Nurr1, stably transfected with 8NBRE-luciferase; 24 hours incubation. How it is done:
Evaluation of the In Vitro Activity on N2A Cells
Assays consisted in measuring the in vitro activity of the compounds of the invention on a cell line (N2A) endogenously expressing the mouse Nurr1 receptor and stably transfected with the NOT binding response element (NBRE) coupled to the luciferase reporter gene. The EC50 values are between 0.01 and 1000 nM. The assays were carried out according to the procedure described below.
The Neuro-2A cell line comes from a standard commercial source (ATCC). The Neuro-2A clone was obtained from a spontaneous tumour originating from an A albino mouse strain, by R. J Klebe et col. This Neuro-2A line is subsequently stably transfected with 8NBRE-luciferase. The N2A-8NBRE cells are cultured until confluence in 75 cm^2 culture flasks containing DMEM supplemented with 10% of foetal calf serum, 4.5 g/l of glucose and 0.4 mg/ml of geneticin. After a week of culture, the cells are recovered with 0.25% trypsin for 30 seconds and then resuspended in DMEM without phenol red, containing 4.5 g/l of glucose and 10% of Hyclone delipidized serum, and deposited into transparent-bottom 96-well white plates. The cells are deposited at a rate of 60 000 per well in 75 μl for 24 hours before the addition of the products. The products are applied in 25 μl and incubated for a further 24 hours. On the day of the measurement, an equivalent volume (100 μl) of Steadylite are added to each well and then left for a period of 30 minutes in order to obtain complete cell lysis and maximum signal production. The plates are subsequently measured in a luminescence counter for microplates after having been sealed with an adhesive film. The products are prepared in the form of a stock solution at 10^−2M and then diluted in 100% of DMSO. Each product concentration is prediluted in culture medium before incubation with the cells, thus containing 0.625% final concentration of DMSO.
The compound `CC(C)(O)c1cccc(-c2ccc3nc(-c4ccc(Cl)cc4)cn3c2)c1` [Compound 39, 2-{3-[2-(4-Chlorophenyl)imidazo[1,2-a]pyridin-6-yl]phenyl}propan-2-ol] showed a pEC50 of 9.15. Compound `OCc1ccccc1-c1ccc2nc(-c3ccc(Cl)cc3)cn2c1` [Compound 40, {2-[2-(4-Chlorophenyl)imidazo[1,2-a]pyridin-6-yl]phenyl}methanol] gave a pEC50 of 9.15.

Regarding `Cc1ccc(-c2cn3cc(-c4cccc(COc5ccc(Cl)cc5)c4)ccc3n2)cc1` [Compound 31, 6-[3-(4-Chlorophenoxymethyl)phenyl]-2-p-tolylimidazo[1,2-a]pyridine], the negative logarithm of the EC50 (pEC50) is 7.85. The result for `COCCOCc1cccc(-c2ccc3nc(-c4ccc5ccccc5c4)cn3c2)c1` [Compound 17, 6-[3-(2-Methoxyethoxymethyl)phenyl]-2-(naphthalen-2-yl)imidazo[1,2-a]pyridine] reads 8.44.
